Experimental data reported in ChEMBL document CHEMBL3745604, “Synthesis, Biological Activities, and X-ray Crystal Structural Analysis of 25-Hydroxy-25(or 26)-adamantyl-17-[20(22),23-diynyl]-21-norvitamin D Compounds” (J Med Chem, 2015).
The source made the active and inactive calls. No cut-off for these calls is given here.

What was measured:
[1] = Metabolic stability in human MG63 assessed as compound metabolized at 1 uM after 24 hrs by HPLC analysis; type: ADME, MG-63; details: MG63 cells, read-out: Drug metabolism
[2] = Drug uptake in human MG63 cells at 1 uM after 5 mins by HPLC analysis in presence of 10% FBS; type: ADME, cell-based; details: mg-63, 5 min
[3] = Drug uptake in human MG63 cells at 1 uM after 10 mins by HPLC analysis in presence of 10% FBS; type: ADME, cell-based; details: mg-63, 10 min
[4] = target: T1, Vitamin D3 receptor (Homo sapiens, UniProt P11473); test: Agonist activity at VDR (unknown origin) expressed in HEK293 cells cotransfected with NCoR assessed as decrease in NCoR recruitment by two-hybrid assay; type: cell-based
T1 sequence (P11473 whole entry): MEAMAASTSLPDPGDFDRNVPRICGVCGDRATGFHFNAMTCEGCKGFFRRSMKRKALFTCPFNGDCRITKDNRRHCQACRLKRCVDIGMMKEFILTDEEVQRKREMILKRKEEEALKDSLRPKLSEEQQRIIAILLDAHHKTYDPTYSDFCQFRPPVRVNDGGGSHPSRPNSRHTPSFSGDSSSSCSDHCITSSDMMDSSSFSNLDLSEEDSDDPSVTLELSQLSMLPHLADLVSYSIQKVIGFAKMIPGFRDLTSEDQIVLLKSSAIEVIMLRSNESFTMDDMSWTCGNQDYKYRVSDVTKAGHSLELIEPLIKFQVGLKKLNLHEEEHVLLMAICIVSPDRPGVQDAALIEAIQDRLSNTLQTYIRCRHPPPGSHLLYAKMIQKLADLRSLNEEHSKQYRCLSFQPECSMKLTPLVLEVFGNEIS

[5] = target: T1, Vitamin D3 receptor; test: (§1) Agonist activity at VDR (unknown origin) expressed in HEK293 cells cotransfected with RXRalpha assessed as RXRalpha recruitment by two-hybrid assay; type: cell-based
[6] = target: T1, Vitamin D3 receptor; test: Displacement of [3H]-1,25(OH)2D3 from recombinant human VDR ligand binding domain
[7] = target: T1, Vitamin D3 receptor; test: Agonist activity at VDR (unknown origin) expressed in HEK293 cells cotransfected with SRC1 assessed as SRC1 recruitment by two-hybrid assay; type: cell-based
[8] = target: T2, Vitamin D3 receptor (Homo sapiens) (UniProt P11473); test: Displacement of [3H]-1,25(OH)2D3 from recombinant human VDR ligand binding domain relative to 1,25(OH)2D3
T2 sequence (whole entry): T1 sequence (P11473 whole entry)

[9] = target: T2, Vitamin D3 receptor (Homo sapiens); test: Partial agonist activity at VDR in human HEK293 cells assessed as transcriptional activity after 16 to 24 hrs by luciferase reporter gene assay relative to 1,25(OH)2D3; type: cell-based
[10] = target: T1, Vitamin D3 receptor; test: Agonist activity at VDR in human HEK293 cells assessed as transcriptional activity after 16 to 24 hrs by luciferase reporter gene assay; type: cell-based
[11] = target: T2, Vitamin D3 receptor (Homo sapiens); test: as §1; type: cell-based

Compound | metabolised at 24 h, 1 µM [1] | Drug uptake [2] | Drug uptake [3] | IC50 [4] | EC50 [5] | IC50 [6] | EC50 [7] | Activity [8] | Efficacy [9] | EC50 [10] | Activity [11]
C=C1/C(=C\C=C2/CCC[C@]3(C)[C@@H]([C@H](C)CCCC(C)(C)O)CC[C@@H]23)C[C@@H](O)C[C@@H]1O [CALCITRIOL] | 25% | 2.5% | 2.7% |  |  |  |  |  |  |  | 
C=C1[C@H](O)CC(=C/C=C2\CCC[C@]3(C)[C@@H](C#CC#C[C@@H](O)C45CC6CC(CC(C6)C4)C5)CC[C@@H]23)C[C@H]1O | 8% | 5.9% | 7.7% | 0.09 nM | 0.7 nM | 5 nM | 4.5 nM | 7% | 86% | 1.5 nM | 
C=C1[C@H](O)CC(=C/C=C2\CCC[C@]3(C)[C@@H](C#CC#C[C@H](O)CC45CC6CC(CC(C6)C4)C5)CC[C@@H]23)C[C@H]1O |  |  |  |  |  | 35 nM |  | 1% | 59% | 30 nM | Active
C=C1[C@H](O)CC(=C/C=C2\CCC[C@]3(C)[C@@H](C#CC#C[C@@H](O)CC45CC6CC(CC(C6)C4)C5)CC[C@@H]23)C[C@H]1O |  |  |  |  |  | 35 nM |  | 1% |  | 20 nM | Active
C=C1[C@H](O)CC(=C/C=C2\CCC[C@]3(C)[C@@H](C#CC#C[C@H](O)C45CC6CC(CC(C6)C4)C5)CC[C@@H]23)C[C@H]1O |  |  |  |  |  | 12.5 nM |  | 3% | 41% | 7 nM | 
